Like-named read-outs stand apart in the source and are kept apart here. Square brackets hold non-standard residues; d marks the D form. pY = N[C@@H](Cc1ccc(OP(=O)(O)O)cc1)C(=O)O

The test system of assay [1] is Fer kinase domain. The assay is described as follows: pTyr-Var library bacterial peptide display kinase screen (enrichment scores). Format: biochemical, mouse. To be noted: sheet "Fer".
Assay [2] concerns EPHB1 kinase domain. Described as above. Format: biochemical, human. The conditions noted are these: for Screen: sheet EPHB1, effect of the variant peptide relative to its reference peptide in the pTyr-Var library screen (enrichment scores); for Screen (variant relative to reference peptide, measured in the pTyr-Var library screen): sheet "EPHB1", variant seq vs reference seq, bacterial peptide display enrichment.

The test system of assay [3] is EPHB2 kinase domain. The description is as above. To be noted: sheet EPHB2. The class given is biochemical, human.
Assay [4] deals with T1, c-Src kinase domain (Homo sapiens, UniProt P12931). The assay is described as above. Format: biochemical.
Assay [5] concerns the target T2, c-Abl kinase domain (Mus musculus, UniProt P00520).
T2 sequence (P00520 242-493 limits assumed): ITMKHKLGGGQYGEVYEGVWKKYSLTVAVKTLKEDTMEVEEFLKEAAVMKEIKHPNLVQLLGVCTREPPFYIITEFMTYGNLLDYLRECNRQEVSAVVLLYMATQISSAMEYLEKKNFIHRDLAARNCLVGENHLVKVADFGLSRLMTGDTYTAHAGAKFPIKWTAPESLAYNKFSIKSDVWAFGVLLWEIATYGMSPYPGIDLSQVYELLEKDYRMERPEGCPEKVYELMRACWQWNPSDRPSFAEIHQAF
The description is as above. Format: biochemical.

The target of assay [6] is T2, c-Abl kinase domain. The assay is described as follows: RP-HPLC assay to measure peptide phosphorylation kinetics. Format: biochemical. The conditions noted are these: purified peptide substrate.
Assay [7] has as its target T1, c-Src kinase domain. Described as above. The class given is biochemical. To be noted: purified peptide substrate.
In assay [8] the target is human c-Src SH2 domain (residues 143-250) (human, UniProt P12931-1 143-250, biotin on the Avi tag (co-expression with the biotin ligase BirA)). The assay is described as follows: fluorescence polarisation; competition: unlabeled phosphopeptide serially diluted against 30 nM fluorescent peptide and 240 nM (1.5 x KD) c-Src SH2; same buffer; 25 °C; cubic binding equation. The conditions noted are these: both partners purified.

Setting [9] is: value of the variant peptide against its reference peptide in the pTyr-Var library screen with Fer.
Where [10] appears, read: effect of variant peptide relative to its reference peptide in the pTyr-Var library screen (enrichment scores).
Setting [11] is: sheet "Src", variant peptide versus its reference peptide in the pTyr-Var library screen.
Setting [12] is: effect of the variant relative to its reference peptide in the pTyr-Var library screen.
[13] abbreviates: variant peptide relative to its reference peptide, pTyr-Var library screen enrichment.
Where [14] appears, read: sheet "Src", effect of the variant peptide relative to its reference peptide in the pTyr-Var library screen.

On to LPPREYVVVPS [CAPN1_Y494_G492R], for which the Screen in assay [1] (setting [9]) is given as 0.6785; in assay [2], -0.6929; in assay [3] (setting [10]), -0.3372.

With CPPKVYELMIA [ABL2_Y515_R519I], the Screen is listed as 0.5796 in assay [4], 0.2175 in assay [1] (setting [9]), -0.2414 in assay [2] and -0.0581 in assay [3] (setting [10]).

In the case of AEFGLYAAMVR [VSX2_Y222_G223A_YF], the Screen in assay [4] (setting [11]) is recorded as -0.7281; in assay [5] (sheet "Abl", effect of variant peptide relative to its reference peptide in pTyr-Var library screen (enrichment)) it was 2.617; in assay [3] (setting [12]), 1.609. Moreover, in assay [2], the “Screen (variant relative to reference peptide, measured in the pTyr-Var library screen)” value is 1.956.

As to DNKALYDICFR [TUBB3_Y208_E205K], the Screen in assay [4] (setting [11]) is -0.8548; in assay [1] (setting [13]), -1.219; in assay [3] (setting [12]), -1.114. Further, the “Screen (variant relative to reference peptide, measured in the pTyr-Var library screen)” value in assay [2] was -0.6777.

Regarding VFDHIYTTQSD [RET_Y928_L923V], the Screen is recorded as -1.024 in assay [4] (setting [11]), -1.691 in assay [1] (setting [13]) and -2.18 in assay [3] (setting [10]).

For the molecule FGMQLYQKFMH [GRB14_Y347_N349K_YF], the Screen in assay [4] (setting [14]) is recorded as -0.6929; in assay [1] (setting [9]), -1.436; in assay [2], -1.356; in assay [3] (setting [10]), -1.587.

With QMVGMYAFSFM [AVPR2_Y124_S126F_YF], the Screen in assay [4] (setting [14]) is on record as -0.3615; in assay [1] (setting [9]) it was 2.024; in assay [2], 0.9458; in assay [3] (setting [10]), 0.9949.

For the molecule ASFSLYEPAKM [MKI67_Y340_P338S], the Screen in assay [4] (setting [14]) is on record as -1.253; in assay [1] (setting [9]) it was -0.8096; in assay [2], -1.581; in assay [3] (setting [10]) it was -1.997.

As to “Ac-LFSEYASVQV-NH2 [SIRPA_Y496_P491L, pTyr-Var library variant peptide, non-canonical c-Abl substrate]”, the “Phosphorylation Rate” value in assay [6] was determined as 0.182 s⁻¹. Besides, the Screen in assay [4] (setting [11]) is on record as -0.1318; in assay [1] (setting [13]), 0.5649; in assay [3] (setting [10]), 0.1232. Further, the “Screen (variant relative to reference peptide, measured in the pTyr-Var library screen)” value in assay [2] was 0.2454.

In the case of PIAPVYAPSMV [ACAT1_Y331_A333P], the Screen in assay [4] was -0.325; in assay [1] (setting [9]), 1.079; in assay [2], -0.08214; in assay [3] (setting [10]), 0.3731.

Regarding QPDLLYDHIQP [TRRAP_Y862_F860L], the Screen in assay [4] (setting [11]) came to 0.81; in assay [1] (setting [13]), 1.063; in assay [3] (setting [12]), 2.501. Besides, the “Screen (variant relative to reference peptide, measured in the pTyr-Var library screen)” value in assay [2] is recorded as 1.53.

As to ELANLYHHVWM [BICD2_Y538_C542W], the Screen in assay [4] (setting [14]) is on record as 0.8025; in assay [5] (fig5-data2, sheet "Abl", Screen for the variant/reference peptide pair, pTyr-Var library), -0.8428; in assay [1] (setting [9]), 2.831; in assay [2], 3.328; in assay [3] (setting [10]), 1.55.

Regarding IQRSLYDCPAS [PDGFRA_Y762_R764C], the Screen in assay [1] (setting [9]) was 2.142; in assay [2], 2.32; in assay [3] (setting [10]) it was 2.388.

QGFDTYFGFLL [ARSB_Y165_R160Q_YF]: the Screen in assay [4] (setting [14]) turned out to be 0.07217; in assay [1] (setting [9]), 0.9524; in assay [2], 0.1277; in assay [3] (setting [10]) it was 0.8549.

VVTGPYEKPSL [KIR3DS1_Y221_L220P]: the Screen in assay [1] (setting [9]) is -4.323; in assay [2] it was -2.822; in assay [3] (setting [10]), -3.858.

Turning to ALTDNYMFVVI [HAGH_Y61_L64V_YF], the Screen worked out at 0.9324 in assay [1] (setting [9]), 0.4544 in assay [2] and 0.5365 in assay [3] (setting [10]).

Regarding “Ac-EGWQVYRLGAR-NH2 [MISP_Y95, pTyr-Var library phosphosite peptide, non-canonical c-Src substrate]”, the “Phosphorylation Rate” value in assay [7] is 0.701 s⁻¹.

Turning to FEELVYETVRV [FSHB_Y76_K72E], the Screen in assay [4] (setting [14]) is -0.8103; in assay [1] (setting [9]), -0.5222; in assay [2], -1.125; in assay [3] (setting [10]), -0.7932.

Consider QVQQIYSDSDL [MIB1_Y376_R371Q], for which the Screen in assay [4] (setting [14]) is reported as 0.02886; in assay [1] (setting [9]), 0.8951; in assay [3] (setting [10]), 1.36.

In the case of RQQQDYWLMDV [ANPEP_Y600_I603M], the Screen in assay [1] (setting [9]) is -1.652; in assay [2] it was -0.3; in assay [3] (setting [10]), -0.2938.

Regarding “Ac-VASSLYDIFAR-NH2 [GLB1_Y294_L297F, pTyr-Var library variant phosphosite peptide]”, the “Phosphorylation Rate” value in assay [7] was 1.477 s⁻¹. The Screen in assay [4] (setting [14]) amounted to 1.173; in assay [1] (setting [9]), 0.6922; in assay [3] (setting [10]) it was 0.8382.

In the case of VNNLVYENING [FRS2_Y306_K303N], the Screen turned out to be 1.603 in assay [4] (setting [14]), 1.713 in assay [1] (setting [9]), 1.417 in assay [2] and 2.712 in assay [3] (setting [10]).

Regarding “Ac-SVEELYAIPPD-NH2 [PEAK1_Y797, pTyr-Var library phosphosite peptide]”, the “Phosphorylation Rate” value in assay [6] is 0.407 s⁻¹.

With QAPPIYLDVLG [NTRK1_Y791_V790I], the Screen in assay [4] (setting [11]) is on record as 1.261; in assay [1] (setting [9]) it was 2.26; in assay [2], 1.721; in assay [3] (setting [10]), 1.355.

In the case of WASGIYFVPKG [APBB1IP_Y340_R335W_YF], the Screen was found to be 0.1676 in assay [4] (setting [14]), 2.226 in assay [1] (setting [9]), 1.089 in assay [2] and 2.1 in assay [3] (setting [10]).

Regarding HNVAIYEGFAL [ACTC1_Y168_P166A_YF], the Screen was -0.2279 in assay [4] (setting [14]), -0.3735 in assay [1] (setting [9]), -1.018 in assay [2] and -1.285 in assay [3] (setting [10]).

As to MAPQMYESHLP [NCAPD2_Y6_F8S], the Screen in assay [1] (setting [9]) was -1.098; in assay [2], -3.091; in assay [3] (setting [10]) it was -2.267.

For AVIADYMFWLG [SPATA16_Y290_M286V], the Screen is -0.04255 in assay [1] (setting [13]) and -0.2895 in assay [3] (setting [10]). Further, in assay [2], the “Screen (variant relative to reference peptide, measured in the pTyr-Var library screen)” value is -0.3108.

Consider HLMLQYDAVVN [SLC25A32_Y152_R147H], for which the Screen in assay [1] (setting [13]) worked out at 1.415; in assay [3] (setting [10]), 1.051.

In the case of MKDLTYSSLCF [ALOX5_Y446_A447S], the Screen in assay [4] (setting [14]) is listed as 0.1056; in assay [1] (setting [9]), 1.165; in assay [2], 0.1163; in assay [3] (setting [10]) it was 0.3665.

Take LQEQNYPAVDS [FAM114A1_Y115_L116P]: the Screen in assay [1] (setting [9]) is -1.861; in assay [2] it was -2.139; in assay [3] (setting [10]) it was -0.9591.

B1: ACTB_Y240 phosphopeptide Ac-QSLEKS(pY)ELPDGG-NH2 (peptide)
peptide: Ac-QSLEKS[pY]ELPDGG-NH2
SMILES: CC(=O)N[C@@H](CCC(N)=O)C(=O)N[C@@H](CO)C(=O)N[C@@H](CC(C)C)C(=O)N[C@@H](CCC(=O)O)C(=O)N[C@@H](CCCCN)C(=O)N[C@@H](CO)C(=O)N[C@@H](Cc1ccc(OP(=O)(O)O)cc1)C(=O)N[C@@H](CCC(=O)O)C(=O)N[C@@H](CC(C)C)C(=O)N1CCC[C@H]1C(=O)N[C@@H](CC(=O)O)C(=O)NCC(=O)NCC(N)=O
notes: source: synthetic peptide (synthesized in-house, RP-HPLC purified)
B1: the binding result in assay [8] is on record as “binds”.

B2: ACTB_Y240_P243L phosphopeptide Ac-QSLEKS(pY)ELLDGG-NH2 (peptide)
peptide: Ac-QSLEKS[pY]ELLDGG-NH2
SMILES: CC(=O)N[C@@H](CCC(N)=O)C(=O)N[C@@H](CO)C(=O)N[C@@H](CC(C)C)C(=O)N[C@@H](CCC(=O)O)C(=O)N[C@@H](CCCCN)C(=O)N[C@@H](CO)C(=O)N[C@@H](Cc1ccc(OP(=O)(O)O)cc1)C(=O)N[C@@H](CCC(=O)O)C(=O)N[C@@H](CC(C)C)C(=O)N[C@@H](CC(C)C)C(=O)N[C@@H](CC(=O)O)C(=O)NCC(=O)NCC(N)=O
notes: as for B1
Regarding B2, the binding result in assay [8] was “binds”.

B3: CCDC39_Y593 phosphopeptide Ac-QRKQQL(pY)TAMEEG-NH2 (peptide)
peptide: Ac-QRKQQL[pY]TAMEEG-NH2
SMILES: CSCC[C@H](NC(=O)[C@H](C)NC(=O)[C@@H](NC(=O)[C@H](Cc1ccc(OP(=O)(O)O)cc1)NC(=O)[C@H](CC(C)C)NC(=O)[C@H](CCC(N)=O)NC(=O)[C@H](CCC(N)=O)NC(=O)[C@H](CCCCN)NC(=O)[C@H](CCCNC(=N)N)NC(=O)[C@H](CCC(N)=O)NC(C)=O)[C@@H](C)O)C(=O)N[C@@H](CCC(=O)O)C(=O)N[C@@H](CCC(=O)O)C(=O)NCC(N)=O
notes: as for B1
In the case of B3, in assay [8], the binding result is on record as “binds”.
